According to patent US5045567A, “Propanolamine derivatives having anti-diabetic effects” (Hoffmann-La Roche Inc., priority 1989, dated 1991):
Where a name gives a salt, the structure may show the parent alone. Read-outs that look alike come from different tables or passages of the source.

Assays:
[1] = Activity on heart rate (male albino rats, electrocardiogram, per os); format: in vivo; conditions: rat; for Heart rate (% of controls), 1 hour: 1 hour after treatment; for Heart rate (% of controls), 3 hours: 3 hours after treatment
Description: (2) Activity on heart rate
Male albino rats weighing 250-320 g received 6 hours after withdrawl of food either placebo (5% gum arabic) or the test substance (suspended in 5% gum arabic) per os. The animals were subsequently immobilized in perforated plastic tubes. The electrocardiogram was derived by means of bipolar subcutaneous needle electrodes. The R-peak was used to trigger a beat counter. The heart rate measured 1 and 3 hours after treatment was given in Table II as a percentage of the control value (placebo).

[2] = Activity on oxygen consumption (male albino rats in metabolic cages, per os); format: in vivo; conditions: po; for response vs control in vivo at 3 µM, 3 µmol/kg: dosage 3 μM/kg
Description: (1) -Activity on oxygen consumption
Male albino rats weighing 160-180 g were placed in metabolic cages after fasting for 24 hours. The cages were ventilated with a constant 6 liter room air/minute which was equilibrated at a dew point of 11° C. Samples of the spent air were collected during periods of in each case 14 minutes after again equilibrating and the oxygen content and CO2 content were analyzed. After an adaptation time of 4 hours the animals, divided into groups of 6, received either placebo (5% gum arabic) or the test substance (suspended in 5% gum arabic) per os. Thereafter, the determinations were carried out for a period of 12 hours. In Table I the average oxygen consumption after medication during the first 3 hours and the entire test duration (12 hours) is given as percentage of the oxygen consumption during the adaptation period. Corresponding corrections for changes in the placebo group have been taken into consideration.

[3] = 3 h, rat, per os, 1st-3rd hour, corrected for changes in placebo group, read-out: O2 consumption, % of the value of the pre-period, 1st-3rd hour
[4] = 12 h, rat, per os, 1st-12th hour, corrected for changes in placebo group, read-out: O2 consumption, % of the value of the pre-period, 1st-12th hour
[5] = 3 h, rat, per os, dosage 10 μM/kg, 1st-3rd hour, corrected for changes in placebo group, read-out: O2 consumption, % of the value of the pre-period, 1st-3rd hour
[6] = 12 h, rat, per os, dosage 10 μM/kg, 1st-12th hour, corrected for changes in placebo group, read-out: O2 consumption, % of the value of the pre-period, 1st-12th hour

In the case of `CCOCCOc1ccc(CCNCC(CO)c2ccccc2)cc1.O=C(O)C(=O)O` (single isomer, unassigned) [Example 3a, (R or S)-β-[[[p-(2-ethoxyethoxy)phenethyl]amino]methyl]-phenethyl alcohol oxalate], the “Heart rate (% of controls), 1 hour” value ([1]; dosage 10 mg/kg) was 108 % of controls, the “Heart rate (% of controls), 1 hour” value ([1]; dosage 30 mg/kg) was 115 % of controls and the response vs control in vivo at 3 µM, 3 µmol/kg [2, 3] was 152%. For the same compound, the response vs control in vivo at 3 µM, 3 µmol/kg [2, 4] was 112%.
For `CCOCCOc1ccc(CCN(CC(CO)c2ccccc2)CC(CO)c2ccccc2)cc1` (racemic) [Example 2c], the “Heart rate (% of controls), 1 hour” value ([1]; dosage 10 mg/kg) was 103 % of controls, the “Heart rate (% of controls), 3 hours” value ([1]; dosage 10 mg/kg) was 102 % of controls and the “Heart rate (% of controls), 1 hour” value ([1]; dosage 30 mg/kg) was 111 % of controls. The “Heart rate (% of controls), 3 hours” value ([1]; dosage 30 mg/kg) was 104 % of controls, the response vs control in vivo at 3 µM, 3 µmol/kg [2, 3] was 132% and the response vs control in vivo at 3 µM, 3 µmol/kg [2, 4] was 108%.
With `CCOCCOc1ccc(CCNCC(CO)c2cccs2)cc1.O=C(O)C(=O)O` (stereo not drawn) [Example 2o, β-[[[p-(2-ethoxyethoxy)phenethyl]amino]methyl]-2-thiophene-ethanol oxalate] the “Heart rate (% of controls), 1 hour” value ([1]; dosage 30 mg/kg) was 108 % of controls, the “Heart rate (% of controls), 1 hour” value ([1]; dosage 100 mg/kg) was 111 % of controls and the response vs control in vivo at 10 µM, 10 µmol/kg [2, 5] was 147%. It also gave a response vs control in vivo at 10 µM, 10 µmol/kg [2, 6] of 115%.
In the case of `CCOCCOc1ccc(CCN(CC(CO)c2cccc(Cl)c2)C[C@H](O)c2ccccc2)cc1` (stereo partly shown) [Example 2d, oxalate], the “Heart rate (% of controls), 1 hour” value ([1]; dosage 10 mg/kg) was 103 % of controls, the “Heart rate (% of controls), 3 hours” value ([1]; dosage 10 mg/kg) was 100 % of controls and the “Heart rate (% of controls), 1 hour” value ([1]; dosage 30 mg/kg) was 111 % of controls. For the same compound, the “Heart rate (% of controls), 3 hours” value ([1]; dosage 30 mg/kg) was 104 % of controls, the response vs control in vivo at 3 µM, 3 µmol/kg [2, 3] was 152% and the response vs control in vivo at 3 µM, 3 µmol/kg [2, 4] was 127%.
In the case of `OCC(CNCCc1ccc(OCCOCCc2ccccc2)cc1)c1ccccc1` (stereo not drawn) [Example 2j, β-[[[p-(2-phenethoxy)ethoxy]phenethyl]amino]methyl]phenethyl alcohol oxalate], the “Heart rate (% of controls), 1 hour” value ([1]; dosage 100 mg/kg) was 110 % of controls, the response vs control in vivo at 10 µM, 10 µmol/kg [2, 5] was 137% and the response vs control in vivo at 10 µM, 10 µmol/kg [2, 6] was 113%.
For `CCOCCOc1ccc(CCNCC(CO)c2cccc(Cl)c2)cc1.O=C(O)C(=O)O` (stereo not drawn) [Example 2b, m-chloro-β-[[[p-(2-ethoxyethoxy)phenethyl]amino]methyl]phenethyl alcohol oxalate], the “Heart rate (% of controls), 1 hour” value ([1]; dosage 30 mg/kg) was 106 % of controls, the “Heart rate (% of controls), 3 hours” value ([1]; dosage 30 mg/kg) was 99 % of controls and the “Heart rate (% of controls), 1 hour” value ([1]; dosage 100 mg/kg) was 114 % of controls. The “Heart rate (% of controls), 3 hours” value ([1]; dosage 100 mg/kg) was 105 % of controls, the response vs control in vivo at 3 µM, 3 µmol/kg [2, 3] was 124% and the response vs control in vivo at 3 µM, 3 µmol/kg [2, 4] was 107%.
With `CCOC(=O)COc1ccc(CCNCC(CO)c2ccccc2)cc1` (stereo not drawn) [Example 4, ethyl [p-[2-[[β-(hydroxymethyl)phenethyl]-amino]ethyl]phenoxy]acetate hydrochloride] the response vs control in vivo at 3 µM, 3 µmol/kg [2, 3] was 145% and the response vs control in vivo at 3 µM, 3 µmol/kg [2, 4] was 112%.
For `CCOCCOc1ccc(C[C@@H](C)NCC(CO)c2ccccc2)cc1.O=C(O)C(=O)O` (stereo partly drawn) [Example 2a, β-[[[(R)-p-(2-ethoxyethoxy)-α-methylphenethyl]amino]-methyl]-phenethyl alcohol oxalate], the “Heart rate (% of controls), 1 hour” value ([1]; dosage 30 mg/kg) was 105 % of controls, the “Heart rate (% of controls), 3 hours” value ([1]; dosage 30 mg/kg) was 100 % of controls and the “Heart rate (% of controls), 1 hour” value ([1]; dosage 100 mg/kg) was 121 % of controls. For the same compound, the “Heart rate (% of controls), 3 hours” value ([1]; dosage 100 mg/kg) was 112 % of controls, the response vs control in vivo at 10 µM, 10 µmol/kg ([2]; Rattus norvegicus, 3 h, read-out: O2 consumption, % of the value of the pre-period, 1st-3rd hour) was 149% and the response vs control in vivo at 10 µM, 10 µmol/kg ([2]; Rattus norvegicus, 12 h, read-out: O2 consumption, % of the value of the pre-period, 1st-12th hour) was 113%.
